According to US9206184B2, “Disubstituted benzothienyl-pyrrolotriazines and uses thereof” (BAYER INTELLECTUAL PROPERTY GmbH, priority 2011, dated 2015):
Counter-ions that a name gives are not always drawn.

Columns and labels:
[1] = biological target: human FGFR-3 (Homo sapiens (Human), UniProt P22607); experiment: FGFR-3 kinase assay (TR-FRET); assay type: biochemical; details: 10 μM ATP, 15 min pre-incubation with enzyme, compounds of the invention
[2] = test system: Human umbilical vein endothelial cells (HUVEC); experiment: Inhibition of growth factor-mediated cell proliferation (hFGF-2, HUVEC); assay type: cell-based; details: 72 h, read-out: hFGF-2 mediated HUVEC proliferation, IC50 [nM]

human FGFR-3, sequence (P22607 397-806): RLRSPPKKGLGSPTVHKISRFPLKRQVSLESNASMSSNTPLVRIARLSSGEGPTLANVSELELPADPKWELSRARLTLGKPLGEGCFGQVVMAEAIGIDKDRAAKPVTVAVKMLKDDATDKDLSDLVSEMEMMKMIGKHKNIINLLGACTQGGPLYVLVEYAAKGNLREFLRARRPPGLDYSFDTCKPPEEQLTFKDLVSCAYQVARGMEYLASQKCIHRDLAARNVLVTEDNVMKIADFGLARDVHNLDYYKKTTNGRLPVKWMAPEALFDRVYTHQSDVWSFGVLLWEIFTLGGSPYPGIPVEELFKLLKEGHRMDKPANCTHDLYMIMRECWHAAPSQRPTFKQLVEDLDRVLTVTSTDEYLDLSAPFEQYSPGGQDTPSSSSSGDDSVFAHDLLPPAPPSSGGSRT

**Q.** Which IC50 ([1]; dihydrochloride) does the source give for `CCOCc1c(-c2cc3cc(C)cc(OC)c3s2)c2c(N)ncnn2c1CN1CCN(C(C)=O)CC1` [Example 11, 1-(4-{[4-Amino-6-(ethoxymethyl)-5-(7-methoxy-5-methyl-1-benzothiophen-2-yl)pyrrolo[2,1-f]-[1,2,4]triazin-7-yl]methyl}piperazin-1-yl)ethanone dihydrochloride] here?
**A.** 13 nM

**Q.** What about the IC50 [2] of the same compound?
**A.** 150 nM

**Q.** How did the IC50 [1] turn out when `COc1cc(C)cc2cc(-c3c(CNCC(=O)O)c(CN4CCNCC4)n4ncnc(N)c34)sc12` [Example 48, N-{[4-Amino-5-(7-methoxy-5-methyl-1-benzothiophen-2-yl)-7-(piperazin-1-ylmethyl)pyrrolo-[2,1-f][1,2,4]triazin-6-yl]methyl}glycine trihydrochloride] was run?
**A.** 45.4 nM

**Q.** And the IC50 [2]?
**A.** 360 nM
